Read-outs that look alike come from different tables or passages of the source.
What was measured:
[1] = test system: H460, non-small cell lung carcinoma; experiment: Fractionated tumour excision assay, H460 xenograft; type: in vivo, CD-1 nude mice; conditions: i.p. at 100% of MTD twice daily for 4 days, 30 min before each of 8×2.5 Gy, excised 18 hr after treatment
Experimental: (§1) FIG. 3 illustrates by way of a plot the activity of fractionated dose TPZ and compound 77 against hypoxic cells in three human tumour xenograft models: H460, non-small cell lung carcinoma; HT29, human colon carcinoma; SiHa, human cervical carcinoma. Drugs (1.0× fractionated MTD) were administered 30 min before each of 8×2.5 Gy doses of radiation.
(§2) The activity of multiple doses of compound 77 and TPZ against hypoxic cells in three human tumour xenografts is illustrated in FIG. 3. Subcutaneous tumours (average of two largest diameters 8-10 mm) were grown by inoculating 10^7 cells into the midline of the back in CD-1 nude mice. Drugs were administered by i.p. injection at 100% of the MTD for twice daily (9 am, 3 pm) administration for 4 days, either alone or 30 min before each of 8×2.5 Gy local irradiation of the tumour. Tumours were excised 18 hr after treatment and plated to determine the number of clonogens/g tumour tissue. Antitumour activity is measured as logs of cell kill in addition to the cell kill observed for radiation alone.

[2] = test system: HT29, human colon carcinoma; experiment: Fractionated tumour excision assay, HT29 xenograft; type: in vivo, CD-1 nude mice; conditions: i.p. at 100% of MTD twice daily for 4 days, 30 min before each of 8×2.5 Gy, excised 18 hr after treatment
Experimental: as §1, §2

[3] = test system: SiHa, human cervical carcinoma; experiment: Fractionated tumour excision assay, SiHa xenograft; type: in vivo, CD-1 nude mice; conditions: SiHa; i.p. at 100% of MTD twice daily for 4 days, 30 min before each of 8×2.5 Gy; excised 18 hr after treatment
Experimental: as §1, §2

[4] = test system: human colon carcinoma HT29; experiment: Proliferation assay (IC50) under aerobic and hypoxic conditions, HT29; type: cell-based; conditions: for IC50: Homo sapiens, 4 h drug exposure, sulforhodamine B; for HCR: hypoxic cytotoxicity ratio = IC50 aerobic/IC50 hypoxic
Procedure, shortened: (§3)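 HT29 (1100) and SiHa (1500) cells in αMEM with 17 mM glucose and 100 μM 2′-dCyd, exposed 4 h at 37 °C to 3-fold dilutions under 20% O2 or anoxia (<0.001% O2). Regrowth 5 (oxic) or 6 (anoxic) days; IC50 by sulforhodamine B. HCR = IC50 aerobic/IC50 hypoxic.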

[5] = test system: human cervical carcinoma SiHa; experiment: Proliferation assay (IC50) under aerobic and hypoxic conditions, SiHa; type: cell-based; conditions: for IC50: Homo sapiens, 4 h drug exposure, sulforhodamine B; for HCR: hypoxic cytotoxicity ratio = IC50 aerobic/IC50 hypoxic
Procedure, shortened: as §3

[6] = HT-29, hypoxic (anaerobic chamber, <0.001% O2), then 6 days growth, read-out: IC50 (μM) hypoxic
[7] = HT-29, oxic (20% O2), then 5 days growth, read-out: IC50 (μM) oxic
[8] = hypoxic (anaerobic chamber, <0.001% O2), then 6 days growth, read-out: IC50 (μM) hypoxic
[9] = oxic (20% O2), then 5 days growth, read-out: IC50 (μM) oxic

Structure (SMILES)	log cell kill compared to radiation alone [1]	log cell kill compared to radiation alone [2]	log cell kill compared to radiation alone [3]	IC50 [4, 6]	IC50 [4, 7]	HCR [4]	IC50 [5, 8]	IC50 [5, 9]	HCR [5]	melting point
Nc1n[n+]([O-])c2ccccc2[n+]1[O-] [TPZ, tirapazamine, reference compound]	significantly (P<0.05) greater log cell kill	significantly (P<0.05) greater log cell kill	significantly (P<0.05) greater log cell kill	–	–	–	–	–	–	–
[O-][n+]1nc(NCCN2CCCCC2)[n+]([O-])c2ccc3c(c21)CCC3 [Compound 13, N-[2-(1-Piperidinyl)ethyl]-8,9-dihydro-7H-indeno[5,4-e][1,2,4]triazin-3-amine 1,4-Dioxide]	–	–	–	4.9 ± 0.6 µM	251 ± 24 µM	53 ± 11	1 ± 0.1 µM	52 ± 8 µM	51 ± 1	138 to 141 °C
CC1CCCC(C)N1CCNc1n[n+]([O-])c2cc3c(cc2[n+]1[O-])CCC3 (stereo not drawn) [Compound 39, N-[2-(2,6-Dimethyl-1-piperidinyl)ethyl]-7,8-dihydro-6H-indeno[5,6-e][1,2,4]triazin-3-amine 1,4-Dioxide]	–	–	–	2.7 ± 0.2 µM	117 ± 47 µM	42 ± 15	1.1 ± 0.1 µM	73 ± 14 µM	65 ± 13	170 to 172 °C
COC1CCN(CCNc2n[n+]([O-])c3cc4c(cc3[n+]2[O-])CCC4)CC1 [Compound 43, N-[2-(4-Methoxy-1-piperidinyl)ethyl]-7,8-dihydro-6H-indeno[5,6-e][1,2,4]triazin-3-amine 1,4-Dioxide]	–	–	–	3.5 ± 0.3 µM	187 ± 98 µM	56 ± 33	1.2 ± 0.1 µM	91 ± 3 µM	78 ± 11	148 to 151 °C
COC1CCN(CCCNc2n[n+]([O-])c3cc4c(cc3[n+]2[O-])CCC4)CC1 [Compound 59, N-[3-(4-Methoxy-1-piperidinyl)propyl]-7,8-dihydro-6H-indeno[5,6-e][1,2,4]triazin-3-amine 1,4-Dioxide]	–	–	–	7.1 ± 0.8 µM	494 ± 36 µM	70 ± 5	2 ± 0.2 µM	114 ± 2 µM	57 ± 1	128 to 130 °C
CCc1n[n+]([O-])c2cc3c(cc2[n+]1[O-])CCC3 [Compound 68, 3-Ethyl-7,8-dihydro-6H-indeno[5,6-e][1,2,4]triazine 1,4-Dioxide]	–	–	–	48 ± 8 µM	289 ± 3 µM	6.0 ± 0.05	37 ± 2 µM	326 ± 7 µM	8.8 ± 0.2	140 to 142 °C
CN(C)CCNc1n[n+]([O-])c2cc3c(cc2[n+]1[O-])CCC3 [Compound 23, N^1-(1,4-Dioxido-7,8-dihydro-6H-indeno[5,6-e][1,2,4]triazin-3-yl)-N^2,N^2-dimethyl-1,2-ethanediamine]	–	–	–	2.3 ± 0.6 µM	318 ± 14 µM	152 ± 35	0.7 ± 0.3 µM	105 ± 21 µM	111 ± 5	150 to 153 °C
CCc1n[n+]([O-])c2cc3c(cc2[n+]1[O-])CC(CN1CCOCC1)C3 (stereo not drawn) [Compound 144, 3-Ethyl-7-(4-morpholinylmethyl)-7,8-dihydro-6H-indeno[5,6-e][1,2,4]triazine 1,4-Dioxide]	–	–	–	4.8 ± 1.3 µM	154 ± 51 µM	31 ± 2	2.4 ± 0.1 µM	147 ± 37 µM	62 ± 19	164 to 165 °C
[O-][n+]1nc(CCCN2CCOCC2)[n+]([O-])c2cc3c(cc21)CCO3 [Compound 216, 3-[3-(4-Morpholinyl)propyl]-7,8-dihydrofuro[2,3-g][1,2,4]benzotriazine 1,4-Dioxide]	–	–	–	8.9 ± 0.4 µM	218 ± 54 µM	25 ± 6	5.05 ± 0.01 µM	216 µM	43	150 to 154 °C
[O-][n+]1nc(NCCN2CCCCCC2)[n+]([O-])c2cc3c(cc21)CCC3 [Compound 47, N-[2-(1-Azepanyl)ethyl]-7,8-dihydro-6H-indeno[5,6-e][1,2,4]triazin-3-amine 1,4-Dioxide]	–	–	–	1.4 ± 0.1 µM	72 ± 2 µM	52 ± 1	0.71 ± 0.01 µM	67 ± 5 µM	95 ± 6	181 to 184 °C
COCCN(C)CCCNc1n[n+]([O-])c2cc3c(cc2[n+]1[O-])CCC3 [Compound 53, N^1-(1,4-Dioxido-7,8-dihydro-6H-indeno[5,6-e][1,2,4]triazin-3-yl)-N^3-(2-methoxyethyl)-N^3-methyl-1,3-propanediamine]	–	–	–	5.4 ± 2.8 µM	261 ± 90 µM	81 ± 60	2.6 ± 0.4 µM	142 ± 6 µM	55 ± 6	77 to 79 °C
[O-][n+]1nc(NCCCN2CCOCC2)[n+]([O-])c2cc3c(cc21)OCC3 [Compound 200, N-[3-(4-Morpholinyl)propyl]-6,7-dihydrofuro[3,2-g][1,2,4]benzotriazin-3-amine 1,4-Dioxide]	–	–	–	22 ± 4.2 µM	177 ± 80 µM	8 ± 3	3.4 ± 0.8 µM	90 ± 24 µM	28 ± 6	145 to 148 °C
CC1Cc2cc3c(cc2C1)[n+]([O-])c(NCCN(C)C)n[n+]3[O-] (stereo not drawn) [Compound 97, N^1,N^1-Dimethyl-N^2-(7-methyl-1,4-dioxido-7,8-dihydro-6H-indeno[5,6-e][1,2,4]triazin-3-yl)-1,2-ethanediamine]	–	–	–	3.5 ± 0.4 µM	185 ± 27 µM	54 ± 14	1.4 ± 0.3 µM	123 ± 17 µM	97 ± 33	149 to 151 °C
CCc1n[n+]([O-])c2cc3c(cc2[n+]1[O-])CC(CCO)C3 (stereo not drawn) [Compound 162, 2(3-Ethyl-1,4-dioxido-7,8-dihydro-6H-indeno[5,6-e][1,2,4]triazin-7-yl)ethanol]	–	–	–	7.7 ± 1.2 µM	717 ± 320 µM	102 ± 57	2.9 ± 0.4 µM	283 µM	86	152 to 155 °C
CN(C)CCNc1n[n+]([O-])c2c3c(ccc2[n+]1[O-])CCC3 [Compound 7, N^1,N^1-Dimethyl-N^2-(1,4-dioxido-8,9-dihydro-7H-indeno[5,4-e][1,2,4]triazin-3-yl)-1,2-ethanediamine]	–	–	–	3 µM	255 ± 53 µM	67	1.6 µM	226 ± 46 µM	99	153 to 156 °C
[O-][n+]1nc(NCCCCN2CCOCC2)[n+]([O-])c2cc3c(cc21)CCC3 [Compound 63, N-[4-(4-Morpholinyl)butyl]-7,8-dihydro-6H-indeno[5,6-e][1,2,4]triazin-3-amine 1,4-Dioxide]	–	–	–	14.2 µM	325 ± 70 µM	28	5.3 ± 0.4 µM	239 ± 22 µM	46 ± 8	140 to 141 °C
